Results on three compounds are retold here after US20250099407A1, “2-AMINO BENZOPHENONE DERIVATIVES FOR TARGETED FERROPTOSIS INDUCTION IN CANCER THERAPY” (INDIAN INSTITUTE OF TECHNOLOGY KANPUR, priority 2023, published 2025).

For assay [1], the system named is Huh-7 cells. The assay is described as follows: Cell viability, luminescence-based CellTiter-Glo assay, Huh-7 cells. The gist of the method: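 ATP-based CellTiter-Glo luminescence in Huh-7 cells in DMEM, with DMSO (>0.1%) as control. Single-point screens used 10 μM compound with or without Fer-1 (10 μM); dose responses used 8-point 3-fold dilutions from 100/10 μM to 45/4.5 nM. More than two biological replicates with three technical replicates each.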
For orientation: In ATP-based viability assays light output follows the ATP content of the culture.

For assay [2], the system named is Jurkat J6. Put plainly: Cell viability, CellTiter-Glo assay, Jurkat J6. Particulars: Homo sapiens. The format is cell-based. The protocol:
(§1) The viability of screened cancer cells was recorded using a luminescence-based CellTiter-Glo® assay for the ATP quantification. The screening concentration of the molecule ranged from 100/10 μM to 45/4.5 nM with an 8-point-3-fold dilution series in DMEM media (>0.1% DMSO as control). Each experiment was conducted in more than two biological replicates with three technical replicates. The error bar is a representation of standard deviation among the technical replicates.
(§2) The viability of screened cancer cells was recorded using a luminescence-based CellTiter-Glo® assay for the ATP quantification. The screening concentration of IITK3002 ranged from 10 μM to 4.5 nM with an 8-point-3-fold dilution series in DMEM media (>0.1% DMSO as control). Each experiment was conducted in more than two biological replicates with three technical replicates. The error bar is a representation of standard deviation among the technical replicates.
(§3) a. […] In parallel, we have also synthesized the bromoacetamide (IITK3002) version of the lead molecules which is slightly more reactive with thiol nucleophiles when compared to chlorooacetamide warheads as depicted in FIG. 13. […] In addition, we also evaluated the molecules' antiproliferative potency against a panel of twelve different cancer phenotypes. […]

The test system of assay [3] is U87MG. Put plainly: Cell viability, CellTiter-Glo assay, U87MG. The format is cell-based. Particulars: Homo sapiens, U-87 MG. As for the experimental part: as §1, §2, §3
The mark [4] stands for this setting: Homo sapiens, Huh-7, Huh-7 cells, antiproliferative activity, read-out: EC50 in Huh-7 cells.
The mark [5] stands for this setting: Homo sapiens, Huh-7, Huh-7 cells, cell viability, read-out: EC50 Huh-7.
Where [6] appears, read: Huh-7 cells, cell viability, read-out: EC50 Huh-7.

SMILES strings stand for the structures. Where two headings read alike, the source gives them in different places.

As a reminder, the EC50 is the concentration at which the effect is half-maximal. Regarding `C#CCN(C(=O)CCl)c1ccccc1C(=O)c1ccccc1` [IITK3003, N-(2-benzoylphenyl)-2-chloro-N-(prop-2-yn-1-yl)acetamide], the EC50 in assay [1] (setting [4]) was 0.044 µM; in assay [1] (setting [5]), 0.0436 µM; in assay [1] (Huh-7 cells, antiproliferative activity, read-out: EC50 in Huh-7 cells), 0.06 µM.

In the case of `CN(C(=O)CCl)c1ccccc1C(=O)c1ccccc1` [IITK3001, N-(2-benzoylphenyl)-2-chloro-N-methylacetamide], the “screening of electrophilic small molecules, viability of Huh-7 cells” value in assay [1] (10 μM with or without Fer-1 (10 μM)) is on record as “potent inhibitors of Huh-7 cells”. In addition, the concentration for a half-maximal effect (EC50) came out at 0.233 µM in assay [1] (setting [5]), 0.233 µM in assay [1] (setting [6]), 0.222 µM in assay [2] and 0.402 µM in assay [3].

In the case of `CN(C(=O)CBr)c1ccccc1C(=O)c1ccccc1` [IITK3002, N-(2-benzoylphenyl)-2-bromo-N-methylacetamide], the EC50 in assay [1] (setting [4]) was 0.03 µM; in assay [1] (setting [5]), 0.032 µM; in assay [1] (setting [6]) it was 0.032 µM; in assay [2], 0.037 µM; in assay [3], 0.08 µM.
